Tests used:
MM1S-LucNeo cells = test: Orthotopic mouse model of multiple myeloma, bioluminescence imaging; assay type: in vivo; details: 50 mg/kg PO BID, after 8 days of treatment, p=0.58
Procedure: MM1S-LucNeo cells were created by transducing MM1S cells with a retrovirus encoding the firefly luciferase coding region fused to neomycin phosphotransferase (pMMP-LucNeo). Transduced cells were selected by growth in medium (RPMI, 10% FBS, penicillin/streptomycin) containing G418 at an effective concentration of 1 mg/ml.
NOD-SCID mice (Jackson Laboratory) were sublethally irradiated with 300 rads from a ^137CS source. Three hours after irradiation, a total of 5×10^6 MM1S-LucNeo cells in mid-logarithmic growth phase were injected via tail vein into each mouse in a volume of 300 μL of PBS. Mice were maintained under sterile conditions.
Bioluminescence imaging was performed with a Xenogen In Vivo Imaging System (IVIS 100). Mice were anesthetized by IP injection of ketamine 150 mg/kg and xylazine 12 mg/kg, and simultaneously D-luciferin 50 mg/kg was administered by IP injection. Imaging was performed 15 minutes after D-luciferin injection with a setting of 2 minutes, and a bin setting of 2. Mice were allowed to recover under isothermic conditions. Mice were imaged weekly beginning 2 weeks after tumor inoculation. Mice with increasing tumor burden were divided into 2 statistically equivalent cohorts, and treatment was started 4 weeks after tumor inoculation. […]

BM stromal cells (BMSCs) = test: Viability of bone marrow stromal cells (MTT); assay type: cell-based, human; details: 0.5 μM
Procedure: Primary MM patient samples were freshly isolated from bone marrow aspirates from patients undergoing diagnostic or restaging bone marrow aspirates under an IRB-approved protocol. MM cells were purified using custom-made RosetteSep cocktail of monoclonal antibodies (mAb's) (StemCell Technologies Inc, Vancouver, Canada) for negative selection of CD138^+ MM cells. The CD138^− fraction of the MM cell purification process was cultured in 20% FBS-supplemented media for isolation of the adherent bone marrow stromal cells. Peripheral blood B cells were isolated by ficoll-density centrifugation of peripheral blood samples from MM patients. […] […] At the end of each treatment, cells were incubated with 1 mg/ml MTT for 4 hours at 37° C.; a mixture of isopropanol and 1N HCl (23:2, v/v) was then added under vigorous pipetting to dissolve the formazan crystals. Dye absorbance (A) in viable cells was measured at 570 nm, with 630 nm as a reference wavelength. Cell survival was estimated as a percentage of the value of untreated controls. All experiments were repeated at least three times, and each experimental condition was repeated at least in quadruplicate wells in each experiment.

peripheral blood B-cells = test: Viability of peripheral blood B-cells; assay type: cell-based, human; details: 0.5 μM
Procedure: Primary MM patient samples were freshly isolated from bone marrow aspirates from patients undergoing diagnostic or restaging bone marrow aspirates under an IRB-approved protocol. MM cells were purified using custom-made RosetteSep cocktail of monoclonal antibodies (mAb's) (StemCell Technologies Inc, Vancouver, Canada) for negative selection of CD138^+ MM cells. The CD138^− fraction of the MM cell purification process was cultured in 20% FBS-supplemented media for isolation of the adherent bone marrow stromal cells. Peripheral blood B cells were isolated by ficoll-density centrifugation of peripheral blood samples from MM patients.
To assess whether MM cells are more susceptible to inhibition of IGF-1R signaling, than normal cells in their immediate environment, primary MM cells, normal bone marrow stromal cells and peripheral blood B-cells, were exposed to 0.5 μM NVP-AEW541.

Nc1ncnc2c1c(-c1cccc(OCc3ccccc3)c1)cn2[C@H]1C[C@@H](CN2CCC2)C1 [NVP-AEW541]
body weight (MM1S-LucNeo cells): no difference in body weight
viability of bone marrow stromal cells (BM stromal cells (BMSCs)): no effect on the viability
viability of peripheral blood B-cells (peripheral blood B-cells): no effect on the viability

— US7781393B2, “Methods for inhibiting tumor cell growth” (Dana-Farber Cancer Institute, Inc., priority 2004, dated 2010)
